# Laboratory results taken from ChEMBL document CHEMBL1133707, “Heteroarylmethoxyphenylalkoxyiminoalkylcarboxylic acids as leukotriene biosynthesis inhibitors” (J Med Chem, 2000).
# System: Rattus norvegicus
# Experiment: Percent inhibition was determined for in vivo ionophore induced rat pleurisy at a dose of 3 mg/kg
# Format: functional
row,Compound,I
1,C/C(=N\OC(c1cc2ccc(OCc3ccc4ccccc4n3)cc2s1)C1CCCCC1)C(=O)O (centres undefined),80%
2,Cc1nc(COc2ccc(C(O/N=C/C(=O)O)C3CCCCC3)cc2)cs1 (centres undefined),4%
3,O=C(O)/C(Cc1ccc(O)cc1)=N/OC(c1ccc(OCc2ccc3ccccc3n2)cc1)C1CCCCC1 (centres undefined),39%
4,C/C(=N\OCC(c1ccc(OCc2ccc3ccccc3n2)cc1)C1CCCCC1)C(=O)O (centres undefined),33%
5,O=C(O)/C(=N\OC(c1ccc(OCc2ccc3ccccc3n2)cc1)C1CCCCC1)c1cccs1 (centres undefined),60%
6,O=C(O)/C=N/OC(c1ccc(OCc2cnc3ccccc3n2)cc1)C1CCCCC1 (centres undefined),28%
7,O=C(O)/C=N/OC(c1ccc(OCc2ccc3ccccc3n2)cc1)C1CCCC1 (centres undefined),27%
8,O=C(O)/C(CCc1ccccc1)=N/OC(c1ccc(OCc2ccc3ccccc3n2)cc1)C1CCCCC1 (centres undefined),34%
9,O=C(O)/C=N/OC(c1cc2cc(OCc3ccc4ccccc4n3)ccc2o1)C1CCCCC1 (centres undefined),31%
10,O=C(O)C1CCC(=NOC(c2ccc(OCc3ccc4ccccc4n3)cc2)C2CCCCC2)CC1 (centres undefined),9%
11,COc1cc(OCc2ccc3ccccc3n2)ccc1C(O/N=C/C(=O)O)C1CCCCC1 (centres undefined),41%
12,C/C(=N\OC(Cc1ccccc1)c1ccc(OCc2ccc3ccccc3n2)cc1)C(=O)O (centres undefined),36%
13,C/C(=N\OC(Cc1ccc(OCc2ccc3ccccc3n2)cc1)C1CCCCC1)C(=O)O (centres undefined),30%
14,O=C(O)c1ccc(/C=N/OC(c2ccc(OCc3ccc4ccccc4n3)cc2)C2CCCCC2)cc1 (centres undefined),41%
15,O=C(O)/C(=N/OC(c1ccc(OCc2ccc3ccccc3n2)cc1)C1CCCCC1)c1cccs1 (centres undefined),29%
16,C/C(=N\OC(c1ccc(OCc2nc(-c3ccccc3)cs2)cc1)C1CCCCC1)C(=O)O (centres undefined),15%
17,C/C(=N\OC(c1ccc(OCc2nc3cc(F)ccc3s2)cc1Cl)C1CCCCC1)C(=O)O (centres undefined),22%
18,C/C(=N\OC(c1ccc(OCc2ccc3ccccc3n2)cc1)c1cccs1)C(=O)O (centres undefined),6%
19,O=C(O)/C=N/OC(c1ccc(OCc2ccc3cc(F)ccc3n2)cc1)C1CCCCC1 (centres undefined),39%
20,O=C(O)/C=N/OC(c1ccc(OCc2csc(-c3ccc(Cl)cc3)n2)cc1)C1CCCCC1 (centres undefined),30%

row,Compound,I
1,CCCCC(CCCC)C(O/N=C/C(=O)O)c1ccc(OCc2ccc3ccccc3n2)cc1 (centres undefined),7%
2,O=C(O)/C=N/OC(c1ccc(OCc2nc3cccnc3s2)cc1)C1CCCCC1 (centres undefined),47%
3,C/C(=N\OC(c1ccc(COc2ccc3ccccc3n2)cc1)C1CCCCC1)C(=O)O (centres undefined),0%
4,Cc1cc(C(O/N=C/C(=O)O)C2CCCCC2)ccc1OCc1ccc2ccccc2n1 (centres undefined),15%
5,O=C(O)/C=N/OC(c1ccc(OCc2nc3cc(F)ccc3s2)cc1)C1CCCCC1 (centres undefined),0%
6,O=C(O)/C(=N/OC(c1ccc(OCc2ccc3ccccc3n2)cc1)C1CCCCC1)c1ccccc1 (centres undefined),41%
7,C/C(CCCCCC(=O)O)=N\OC(c1ccc(OCc2ccc3ccccc3n2)cc1)C1CCCCC1 (centres undefined),5%
8,C/C(=N\OC(c1ccc(OCc2nc3ccccc3s2)cc1)C1CCCCC1)C(=O)O (centres undefined),85%
9,O=C(O)/C=N/OC(c1ccc(OCc2nc3ccccc3s2)cc1Cl)C1CCCCC1 (centres undefined),84%
10,C/C(=N\OC(c1ccc(OCc2ccc3ccccc3n2)cc1)C1CCCC1)C(=O)O (centres undefined),61%
11,C/C(CCC(=O)O)=N/OC(c1ccc(OCc2ccc3ccccc3n2)cc1)C1CCCCC1 (centres undefined),62%
12,O=C(O)/C=N/OC(c1ccc(OCc2ccccn2)cc1)C1CCCCC1 (centres undefined),3%
13,O=C(O)/C=N/OC(c1ccc2cc(OCc3ccc4ccccc4n3)ccc2c1)C1CCCCC1 (centres undefined),24%
14,C/C(=N\OC(c1ccc(OCc2ccc3ccccc3n2)c(C)c1)C1CCCCC1)C(=O)O (centres undefined),58%
15,CCCCC(CCCC)C(O/N=C(\C)C(=O)O)c1ccc(OCc2ccc3ccccc3n2)cc1 (centres undefined),40%
16,CC(C)c1ccc(-c2csc(COc3ccc(C(O/N=C/C(=O)O)C4CCCCC4)cc3)n2)cc1 (centres undefined),15%
17,O=C(O)/C=N/OC(c1ccc(OCc2nc3ccccc3o2)cc1)C1CCCCC1 (centres undefined),14%
18,CCCCC(O/N=C/C(=O)O)c1ccc(OCc2ccc3ccccc3n2)cc1 (centres undefined),0%
19,O=C(O)/C=N/OC(c1ccc(OCc2nc(-c3ccccc3)cs2)cc1)C1CCCCC1 (centres undefined),0%
